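Growth conditions: 96-well plates. Treatment: test compound, 48 hours, 5 concentrations. Analysis: linear interpolation between bracketing concentrations; unreached endpoints set to highest concentration. GI50 marks 50% less growth.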 The source made the active and inactive calls. Rule as the data show it: active = GI50 up to about 1.1 µM and inactive = higher.
Experiments:
Test in all cases: inhibition of tumour cell growth, NCI panel, 48 h
SR = tested on: SR
SK-MEL-5 = tested on: SK-MEL-5
UACC-257 = tested on: UACC-257
NCI-H226 = tested on: NCI-H226
SW-620 = tested on: SW-620
HOP-92 = tested on: HOP-92
COLO 205 = tested on: COLO 205
HT-29 = tested on: HT-29
A549 = tested on: A549
M19-MEL = tested on: M19-MEL
LOX IMVI = tested on: LOX IMVI
NCI-H460 = tested on: NCI-H460
HOP-62 = tested on: HOP-62
KM12 = tested on: KM12
HOP-18 = tested on: HOP-18
OVCAR-4 = tested on: OVCAR-4
UO-31 = tested on: UO-31
CCRF-CEM = tested on: CCRF-CEM
SN12C = tested on: SN12C
SF-295 = tested on: SF-295
SNB-78 = tested on: SNB-78
SNB-75 = tested on: SNB-75
HCC 2998 = tested on: HCC 2998
SNB-19 = tested on: SNB-19
ACHN = tested on: ACHN
RXF 393 = tested on: RXF 393
DLD-1 = tested on: DLD-1
MOLT-4 = tested on: MOLT-4
EKVX = tested on: EKVX
SK-OV-3 = tested on: SK-OV-3
RPMI-8226 = tested on: RPMI-8226
DMS-273 = tested on: DMS-273
OVCAR-3 = tested on: OVCAR-3
LXFL 529 = tested on: LXFL 529
CAKI-1 = tested on: CAKI-1
UACC-62 = tested on: UACC-62
SK-MEL-28 = tested on: SK-MEL-28
DMS-114 = tested on: DMS-114
Malme-3M = tested on: Malme-3M
TK-10 = tested on: TK-10
IGROV-1 = tested on: IGROV-1
NCI-H522 = tested on: NCI-H522
KM-20L2 = tested on: KM-20L2
SF-539 = tested on: SF-539
M14 = tested on: M14
OVCAR-5 = tested on: OVCAR-5
OVCAR-8 = tested on: OVCAR-8
HL-60 = tested on: HL-60
HCT-116 = tested on: HCT-116
U-251 = tested on: U-251
786-0 = tested on: 786-0
HCT-15 = tested on: HCT-15
SF-268 = tested on: SF-268
A498 = tested on: A498
XF498 = tested on: XF498
SK-MEL-2 = tested on: SK-MEL-2
K562 = tested on: K562
NCI-H23 = tested on: NCI-H23

`C=CCC12CCC(=O)[C@@]1(C)CC=C(O)C2=O` (stereo partly specified) was tested, and the GI50 (SR) was > 100 µM (inactive), the GI50 (SK-MEL-5) was > 100 µM (inactive) and the GI50 (UACC-257) was > 100 µM (inactive). For the same compound, the GI50 (NCI-H226) was > 100 µM (inactive), the GI50 (SW-620) was > 100 µM (inactive) and the GI50 (HOP-92) was > 100 µM (inactive). The GI50 (COLO 205) was > 100 µM (inactive), the GI50 (HT-29) was > 100 µM (inactive) and the GI50 (A549) was > 100 µM (inactive). The GI50 (M19-MEL) was > 100 µM (inactive), the GI50 (LOX IMVI) was > 100 µM (inactive) and the GI50 (NCI-H460) was > 100 µM (inactive). The GI50 (HOP-62) was > 100 µM (inactive), the GI50 (KM12) was > 100 µM (inactive) and the GI50 (HOP-18) was > 100 µM (inactive). The GI50 (OVCAR-4) was > 100 µM (inactive), the GI50 (UO-31) was > 100 µM (inactive) and the GI50 (CCRF-CEM) was > 100 µM (inactive). The GI50 (SN12C) was > 100 µM (inactive), the GI50 (SF-295) was > 100 µM (inactive) and the GI50 (SNB-78) was > 100 µM (inactive). The GI50 (SNB-75) was > 100 µM (inactive), the GI50 (HCC 2998) was > 100 µM (inactive) and the GI50 (SNB-19) was > 100 µM (inactive). For the same compound, the GI50 (ACHN) was > 100 µM (inactive), the GI50 (RXF 393) was > 100 µM (inactive) and the GI50 (DLD-1) was > 100 µM (inactive). The GI50 (MOLT-4) was > 100 µM (inactive), the GI50 (EKVX) was > 100 µM (inactive) and the GI50 (SK-OV-3) was > 100 µM (inactive). For the same compound, the GI50 (RPMI-8226) was > 100 µM (inactive), the GI50 (DMS-273) was > 100 µM (inactive) and the GI50 (OVCAR-3) was > 100 µM (inactive). The GI50 (LXFL 529) was > 100 µM (inactive), the GI50 (CAKI-1) was > 100 µM (inactive) and the GI50 (UACC-62) was > 100 µM (inactive). The GI50 (SK-MEL-28) was > 100 µM (inactive), the GI50 (DMS-114) was > 100 µM (inactive) and the GI50 (Malme-3M) was > 100 µM (inactive). For the same compound, the GI50 (TK-10) was > 100 µM (inactive), the GI50 (IGROV-1) was > 100 µM (inactive) and the GI50 (NCI-H522) was > 100 µM (inactive). For the same compound, the GI50 (KM-20L2) was > 100 µM (inactive), the GI50 (SF-539) was > 100 µM (inactive) and the GI50 (M14) was > 100 µM (inactive). For the same compound, the GI50 (OVCAR-5) was > 100 µM (inactive), the GI50 (OVCAR-8) was > 100 µM (inactive) and the GI50 (HL-60) was > 100 µM (inactive). The GI50 (HCT-116) was > 100 µM (inactive), the GI50 (U-251) was > 100 µM (inactive) and the GI50 (786-0) was > 100 µM (inactive). The GI50 (HCT-15) was greater than 100 µM, the GI50 (SF-268) was > 100 µM (inactive) and the GI50 (A498) was > 100 µM (inactive).
`O=C(N/C(=C\c1ccc(Cl)cc1)c1nc2ccccc2[nH]1)c1ccccc1` was tested, and the GI50 (SK-MEL-5) was 20.1 µM (inactive), the GI50 (XF498) was 18.6 µM (inactive) and the GI50 (UACC-257) was 19.2 µM (inactive). The GI50 (NCI-H226) was 22.2 µM (inactive), the GI50 (SW-620) was 27.4 µM (inactive) and the GI50 (HOP-92) was 14.9 µM (inactive). The GI50 (COLO 205) was 17.7 µM (inactive), the GI50 (HT-29) was 27.8 µM (inactive) and the GI50 (A549) was 25.4 µM (inactive). For the same compound, the GI50 (M19-MEL) was 19 µM (inactive), the GI50 (LOX IMVI) was 16.2 µM (inactive) and the GI50 (NCI-H460) was 22.1 µM (inactive). The GI50 (KM12) was 16.8 µM (inactive), the GI50 (HOP-18) was 13.7 µM (inactive) and the GI50 (OVCAR-4) was 14.7 µM (inactive). For the same compound, the GI50 (UO-31) was 18.8 µM (inactive), the GI50 (CCRF-CEM) was 20 µM (inactive) and the GI50 (SN12C) was 21.9 µM (inactive). The GI50 (SNB-78) was 29.3 µM (inactive), the GI50 (SNB-75) was 19.7 µM (inactive) and the GI50 (SNB-19) was 27.2 µM (inactive). The GI50 (ACHN) was 27.5 µM (inactive), the GI50 (RXF 393) was 18.4 µM (inactive) and the GI50 (DLD-1) was 15.8 µM (inactive). The GI50 (MOLT-4) was 16.5 µM (inactive), the GI50 (EKVX) was 26.9 µM (inactive) and the GI50 (SK-OV-3) was 37.1 µM (inactive). The GI50 (RPMI-8226) was 16.7 µM (inactive), the GI50 (SK-MEL-2) was 19.1 µM (inactive) and the GI50 (K562) was 15.1 µM (inactive). The GI50 (DMS-273) was 21.1 µM (inactive), the GI50 (OVCAR-3) was 19.6 µM (inactive) and the GI50 (LXFL 529) was 15.3 µM (inactive). The GI50 (CAKI-1) was 20.6 µM (inactive), the GI50 (UACC-62) was 16 µM (inactive) and the GI50 (SK-MEL-28) was 18.5 µM (inactive). For the same compound, the GI50 (Malme-3M) was 34 µM (inactive), the GI50 (TK-10) was 30.3 µM (inactive) and the GI50 (IGROV-1) was 19.4 µM (inactive). The GI50 (NCI-H522) was 12.7 µM (inactive), the GI50 (KM-20L2) was 2.44 µM (inactive) and the GI50 (SF-539) was 16.7 µM (inactive). For the same compound, the GI50 (M14) was 18.7 µM (inactive), the GI50 (OVCAR-5) was 37.2 µM (inactive) and the GI50 (OVCAR-8) was 24.5 µM (inactive). The GI50 (NCI-H23) was 18.3 µM (inactive), the GI50 (HCT-116) was 13.7 µM (inactive) and the GI50 (U-251) was 22.2 µM (inactive). For the same compound, the GI50 (786-0) was 18.9 µM (inactive), the GI50 (HCT-15) was 26.4 µM and the GI50 (SF-268) was 16.3 µM (inactive). For the same compound, the GI50 (A498) was 21.8 µM (inactive).

Source: ChEMBL document CHEMBL1201862, “PubChem BioAssay data set” (2004)
